Test results taken from patent US9579314B2 (priority 2015, dated 2017).

Key:
Human M3 receptor = Human M3 receptor (Homo sapiens, UniProt P20309); conditions: read-out: M3 binding affinity
Human β2 adrenoceptor = Human β2 adrenoceptor (Homo sapiens, UniProt P07550); conditions: read-out: B2 binding affinity
Chain of Human β2 adrenoceptor (P07550 whole entry): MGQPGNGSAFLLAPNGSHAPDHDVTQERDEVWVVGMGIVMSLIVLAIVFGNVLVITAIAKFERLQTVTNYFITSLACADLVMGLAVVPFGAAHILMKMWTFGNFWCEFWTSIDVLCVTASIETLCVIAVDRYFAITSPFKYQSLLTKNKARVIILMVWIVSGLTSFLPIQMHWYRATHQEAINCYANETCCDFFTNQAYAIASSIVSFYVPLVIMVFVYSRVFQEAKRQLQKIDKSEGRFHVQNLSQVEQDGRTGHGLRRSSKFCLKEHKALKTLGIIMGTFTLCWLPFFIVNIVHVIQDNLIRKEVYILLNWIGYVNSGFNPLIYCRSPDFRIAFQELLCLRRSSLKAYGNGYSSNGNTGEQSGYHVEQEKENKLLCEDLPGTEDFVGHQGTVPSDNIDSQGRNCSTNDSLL

Chain of Human M3 receptor (P20309 whole entry): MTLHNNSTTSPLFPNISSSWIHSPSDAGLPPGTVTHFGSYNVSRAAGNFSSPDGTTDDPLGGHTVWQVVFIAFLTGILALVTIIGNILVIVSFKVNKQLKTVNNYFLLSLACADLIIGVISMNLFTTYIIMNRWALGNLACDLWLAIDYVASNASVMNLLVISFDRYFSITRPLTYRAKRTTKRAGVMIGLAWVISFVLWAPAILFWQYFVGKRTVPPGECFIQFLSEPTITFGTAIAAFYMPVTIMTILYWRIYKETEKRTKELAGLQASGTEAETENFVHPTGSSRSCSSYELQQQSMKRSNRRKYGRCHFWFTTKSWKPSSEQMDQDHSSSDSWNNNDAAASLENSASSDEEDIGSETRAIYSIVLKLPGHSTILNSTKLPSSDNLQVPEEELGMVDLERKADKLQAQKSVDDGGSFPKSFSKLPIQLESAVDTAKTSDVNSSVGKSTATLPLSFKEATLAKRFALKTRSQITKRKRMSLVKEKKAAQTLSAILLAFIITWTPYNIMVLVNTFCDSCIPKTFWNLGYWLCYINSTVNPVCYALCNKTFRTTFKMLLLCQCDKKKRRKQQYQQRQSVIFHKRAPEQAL

## COc1cc(CNC[C@H](O)c2ccc(O)c3[nH]c(=O)ccc23)ccc1C(=O)N[C@H]1C[C@H](NC(=O)COc2cccc([C@](O)(C(=O)OCC3CCN(Cc4ccccc4)CC3)c3ccccc3)c2)C1 [Compound 130, (S)-(1-benzylpiperidin-4-yl)methyl 2-hydroxy-2-(3-(2-(((1R,3S)-3-(4-((((R)-2-hydroxy-2-(8-hydroxy-2-oxo-1,2-dihydroquinolin-5-yl)ethyl)amino)methyl)-2-methoxybenzamido)cyclobutyl)amino)-2-oxoethoxy)phenyl)-2-phenylacetate]
Human M3 receptor
  IC50: 0.3 to 3 nM
Human β2 adrenoceptor
  IC50: 0.3 to 3 nM

## COc1cc(C(=O)N[C@H]2C[C@H](NC(=O)COc3cccc([C@](O)(C(=O)OCC4CCN(Cc5ccccc5)CC4)c4ccccc4)c3)C2)ccc1CNC[C@H](O)c1ccc(O)c2[nH]c(=O)ccc12 [Compound 131, (S)-(1-benzylpiperidin-4-yl)methyl 2-hydroxy-2-(3-(2-(((1R,3S)-3-(4-((((R)-2-hydroxy-2-(8-hydroxy-2-oxo-1,2-dihydroquinolin-5-yl)ethyl)amino)methyl)-3-methoxybenzamido)cyclobutyl)amino)-2-oxoethoxy)phenyl)-2-phenylacetate]
Human M3 receptor
  IC50: 0.3 to 3 nM
Human β2 adrenoceptor
  IC50: < 0.3 nM

## O=C(COc1cccc([C@](O)(C(=O)OCC2CCN(Cc3ccccc3)CC2)c2ccccc2)c1)N[C@H]1C[C@H](NC(=O)c2ccc(CNC[C@H](O)c3ccc(O)c4[nH]c(=O)ccc34)c(F)c2)C1 [Compound 132, (1-benzylpiperidin-4-yl)methyl (S)-2-(3-(2-(((1R,3S)-3-(3-fluoro-4-((((R)-2-hydroxy-2-(8-hydroxy-2-oxo-1,2-dihydroquinolin-5-yl)ethyl)amino)methyl)benzamido)cyclobutyl)amino)-2-oxoethoxy)phenyl)-2-hydroxy-2-phenylacetate]
Human M3 receptor
  IC50: 0.3 to 3 nM
Human β2 adrenoceptor
  IC50: < 0.3 nM

## O=C(COc1cccc([C@](O)(C(=O)OCC2CCN(Cc3ccccc3)CC2)c2ccccc2)c1)N[C@H]1C[C@H](NC(=O)c2ccc(CNC[C@H](O)c3ccc(O)c4[nH]c(=O)ccc34)cc2Cl)C1 [Compound 133, (1-benzylpiperidin-4-yl)methyl (S)-2-(3-(2-(((1R,3S)-3-(2-chloro-4-((((R)-2-hydroxy-2-(8-hydroxy-2-oxo-1,2-dihydroquinolin-5-yl)ethyl)amino)methyl)benzamido)cyclobutyl)amino)-2-oxoethoxy)phenyl)-2-hydroxy-2-phenylacetate]
Human M3 receptor
  IC50: < 0.3 nM
Human β2 adrenoceptor
  IC50: < 0.3 nM

## O=C(COc1cccc([C@](O)(C(=O)OCC2CCN(Cc3ccccc3)CC2)c2ccccc2)c1)N[C@H]1C[C@H](NC(=O)c2ccc(CNC[C@H](O)c3ccc(O)c4[nH]c(=O)ccc34)c(F)c2F)C1 [Compound 134, (1-benzylpiperidin-4-yl)methyl (S)-2-(3-(2-(((1R,3S)-3-(2,3-difluoro-4-((((R)-2-hydroxy-2-(8-hydroxy-2-oxo-1,2-dihydroquinolin-5-yl)ethyl)amino)methyl)benzamido)cyclobutyl)amino)-2-oxoethoxy)phenyl)-2-hydroxy-2-phenylacetate]
Human M3 receptor
  IC50: 0.3 to 3 nM
Human β2 adrenoceptor
  IC50: < 0.3 nM

## O=C(COc1cccc([C@](O)(C(=O)OCC2CCN(Cc3ccccc3)CC2)c2ccccc2)c1)N[C@H]1C[C@H](NC(=O)c2ccc(CNC[C@H](O)c3ccc(O)c4[nH]c(=O)ccc34)c(Cl)c2)C1 [Compound 135, (1-benzylpiperidin-4-yl)methyl (S)-2-(3-(2-(((1R,3S)-3-(3-chloro-4-((((R)-2-hydroxy-2-(8-hydroxy-2-oxo-1,2-dihydroquinolin-5-yl)ethyl)amino)methyl)benzamido)cyclobutyl)amino)-2-oxoethoxy)phenyl)-2-hydroxy-2-phenylacetate]
Human M3 receptor
  IC50: 0.3 to 3 nM
Human β2 adrenoceptor
  IC50: < 0.3 nM

## O=C(COc1cccc([C@](O)(C(=O)OCC2CCN(Cc3ccccc3)CC2)c2ccccc2)c1)N[C@H]1C[C@H](NC(=O)c2ccc(CNC[C@H](O)c3ccc(O)c4[nH]c(=O)ccc34)cc2Br)C1 [Compound 136, (1-benzylpiperidin-4-yl)methyl (S)-2-(3-(2-(((1R,3S)-3-(2-bromo-4-((((R)-2-hydroxy-2-(8-hydroxy-2-oxo-1,2-dihydroquinolin-5-yl)ethyl)amino)methyl)benzamido)cyclobutyl)amino)-2-oxoethoxy)phenyl)-2-hydroxy-2-phenylacetate]
Human M3 receptor
  IC50: 0.3 to 3 nM
Human β2 adrenoceptor
  IC50: < 0.3 nM

## COc1cc(C(=O)N[C@H]2C[C@H](NC(=O)COc3cccc([C@](O)(C(=O)OCC4CCN(Cc5ccccc5)CC4)c4ccccc4)c3)C2)c(Cl)cc1CNC[C@H](O)c1ccc(O)c2[nH]c(=O)ccc12 [Compound 137, (1-benzylpiperidin-4-yl)methyl (S)-2-(3-(2-(((1R,3S)-3-(2-chloro-4-((((R)-2-hydroxy-2-(8-hydroxy-2-oxo-1,2-dihydroquinolin-5-yl)ethyl)amino)methyl)-5-methoxybenzamido)cyclobutyl)amino)-2-oxoethoxy)phenyl)-2-hydroxy-2-phenylacetate]
Human M3 receptor
  IC50: 0.3 to 3 nM
Human β2 adrenoceptor
  IC50: < 0.3 nM

## O=C(COc1cccc([C@](O)(C(=O)OCC2CCN(Cc3ccccc3)CC2)c2ccccc2)c1)N[C@H]1C[C@H](NC(=O)c2ccc(CNC[C@H](O)c3ccc(O)c4[nH]c(=O)ccc34)c(C(F)(F)F)c2)C1 [Compound 138, (1-benzylpiperidin-4-yl)methyl (S)-2-hydroxy-2-(3-(2-(((1R,3S)-3-(4-((((R)-2-hydroxy-2-(8-hydroxy-2-oxo-1,2-dihydroquinolin-5-yl)ethyl)amino)methyl)-3-(trifluoromethyl)benzamido)cyclobutyl)amino)-2-oxoethoxy)phenyl)-2-phenylacetate]
Human M3 receptor
  IC50: 0.3 to 3 nM
Human β2 adrenoceptor
  IC50: 0.3 to 3 nM

## COc1c(CNC[C@H](O)c2ccc(O)c3[nH]c(=O)ccc23)ccc(C(=O)N[C@H]2C[C@H](NC(=O)COc3cccc([C@](O)(C(=O)OCC4CCN(Cc5ccccc5)CC4)c4ccccc4)c3)C2)c1F [Compound 139, (1-benzylpiperidin-4-yl)methyl (S)-2-(3-(2-(((1R,3S)-3-(2-fluoro-4-((((R)-2-hydroxy-2-(8-hydroxy-2-oxo-1,2-dihydroquinolin-5-yl)ethyl)amino)methyl)-3-methoxybenzamido)cyclobutyl)amino)-2-oxoethoxy)phenyl)-2-hydroxy-2-phenylacetate]
Human M3 receptor
  IC50: 0.3 to 3 nM
Human β2 adrenoceptor
  IC50: < 0.3 nM

## CCOc1cc(C(=O)N[C@H]2C[C@H](NC(=O)COc3cccc([C@](O)(C(=O)OCC4CCN(Cc5ccccc5)CC4)c4ccccc4)c3)C2)ccc1CNC[C@H](O)c1ccc(O)c2[nH]c(=O)ccc12 [Compound 140, (1-benzylpiperidin-4-yl)methyl (S)-2-(3-(2-(((1R,3S)-3-(3-ethoxy-4-((((R)-2-hydroxy-2-(8-hydroxy-2-oxo-1,2-dihydroquinolin-5-yl)ethyl)amino)methyl)benzamido)cyclobutyl)amino)-2-oxoethoxy)phenyl)-2-hydroxy-2-phenylacetate]
Human M3 receptor
  IC50: 0.3 to 3 nM
Human β2 adrenoceptor
  IC50: 0.3 to 3 nM

## O=C(COc1cccc([C@](O)(C(=O)OCC2CCN(Cc3ccccc3)CC2)c2ccccc2)c1)N[C@H]1C[C@H](NC(=O)c2ccc(CNC[C@H](O)c3ccc(O)c4[nH]c(=O)ccc34)c(OC(F)(F)F)c2)C1 [Compound 141, (1-benzylpiperidin-4-yl)methyl (S)-2-hydroxy-2-(3-(2-(((1R,3S)-3-(4-((((R)-2-hydroxy-2-(8-hydroxy-2-oxo-1,2-dihydroquinolin-5-yl)ethyl)amino)methyl)-3-(trifluoromethoxy)benzamido)cyclobutyl)amino)-2-oxoethoxy)phenyl)-2-phenylacetate]
Human M3 receptor
  IC50: 0.3 to 3 nM
Human β2 adrenoceptor
  IC50: 0.3 to 3 nM

## COc1cc(C(=O)N[C@H]2C[C@H](NC(=O)COc3cccc([C@](O)(C(=O)OCC4CCN(Cc5ccccc5)CC4)c4ccccc4)c3)C2)c(F)cc1CNC[C@H](O)c1ccc(O)c2[nH]c(=O)ccc12 [Compound 142, (1-benzylpiperidin-4-yl)methyl (S)-2-(3-(2-(((1R,3S)-3-(2-fluoro-4-((((R)-2-hydroxy-2-(8-hydroxy-2-oxo-1,2-dihydroquinolin-5-yl)ethyl)amino)methyl)-5-methoxybenzamido)cyclobutyl)amino)-2-oxoethoxy)phenyl)-2-hydroxy-2-phenylacetate]
Human M3 receptor
  IC50: 0.3 to 3 nM
Human β2 adrenoceptor
  IC50: < 0.3 nM

## CC(C)Oc1cc(C(=O)N[C@H]2C[C@H](NC(=O)COc3cccc([C@](O)(C(=O)OCC4CCN(Cc5ccccc5)CC4)c4ccccc4)c3)C2)ccc1CNC[C@H](O)c1ccc(O)c2[nH]c(=O)ccc12 [Compound 143, (1-benzylpiperidin-4-yl)methyl (S)-2-hydroxy-2-(3-(2-(((1R,3S)-3-(4-((((R)-2-hydroxy-2-(8-hydroxy-2-oxo-1,2-dihydroquinolin-5-yl)ethyl)amino)methyl)-3-isopropoxybenzamido)cyclobutyl)amino)-2-oxoethoxy)phenyl)-2-phenylacetate]
Human M3 receptor
  IC50: 0.3 to 3 nM
Human β2 adrenoceptor
  IC50: 0.3 to 3 nM

## O=C(COc1cccc([C@](O)(C(=O)OCC2CCN(Cc3ccccc3)CC2)c2ccccc2)c1)N[C@H]1C[C@H](NC(=O)c2ccc(CNC[C@H](O)c3ccc(O)c4[nH]c(=O)ccc34)cn2)C1 [Compound 144, (1-benzylpiperidin-4-yl)methyl (S)-2-hydroxy-2-(3-(2-(((1R,3S)-3-(5-((((R)-2-hydroxy-2-(8-hydroxy-2-oxo-1,2-dihydroquinolin-5-yl)ethyl)amino)methyl)picolinamido)cyclobutyl)amino)-2-oxoethoxy)phenyl)-2-phenylacetate]
Human M3 receptor
  IC50: 0.3 to 3 nM
Human β2 adrenoceptor
  IC50: < 0.3 nM

## O=C(COc1cccc([C@](O)(C(=O)OCC2CCN(Cc3ccccc3)CC2)c2ccccc2)c1)N[C@H]1C[C@H](NC(=O)c2ccc(CNC[C@H](O)c3ccc(O)c4[nH]c(=O)ccc34)nc2)C1 [Compound 145, (1-benzylpiperidin-4-yl)methyl (S)-2-hydroxy-2-(3-(2-(((1R,3S)-3-(6-((((R)-2-hydroxy-2-(8-hydroxy-2-oxo-1,2-dihydroquinolin-5-yl)ethyl)amino)methyl)nicotinamido)cyclobutyl)amino)-2-oxoethoxy)phenyl)-2-phenylacetate]
Human M3 receptor
  IC50: 0.3 to 3 nM
Human β2 adrenoceptor
  IC50: 0.3 to 3 nM
